# Values quoted from earlier work, collected in US7777051B2, “Asymmetric benzimidazoles and related compounds as potassium channel modulators” (Icagen, Inc., priority 2003, dated 2010).
# Biological target: SK2 subtype channels (Rattus norvegicus, UniProt P70604)
# Details: patch clamp
row,Molecule,block of SK2 channel currents
1,CN(C)CCC=C1c2ccccc2CCc2ccccc21 [amitriptyline],block SK2 channel currents with micromolar affinity
2,NC(=O)N1c2ccccc2C=Cc2ccccc21 [carbamazepine],block SK2 channel currents with micromolar affinity
3,Nc1c2c(nc3ccccc13)CCCC2 [tacrine],block SK2 channel currents with micromolar affinity

# Biological target: T1, recombinant human SK4 (hIK1 or hKCa4) channels (Homo sapiens, UniProt O15554+P0DP23)
# T1 construct: host or cells: HEK 293 cells (transfected, membrane patches)
# Details: applied to the inside of membrane patches, concentrations up to 100 μM; HEK 293
row,Molecule,activation of SK4 channels
1,magnesium,did not activate the SK4 channels
2,calcium,activated SK4 channels in a concentration-dependent manner
3,iron,did not activate the SK4 channels
4,zinc,did not activate the SK4 channels
5,cadmium,activated SK4 channels in a concentration-dependent manner
6,lead,activated SK4 channels in a concentration-dependent manner
7,cobalt,did not activate the SK4 channels
8,strontium,activated SK4 channels in a concentration-dependent manner
9,Barium,activated SK4 channels in a concentration-dependent manner

# Tested on: SK channels
# Details: not given
row,Molecule,inhibition of SK channels
1,O=C1N(c2ccccc2)c2ccccc2C1(Cc1ccncc1)Cc1ccncc1 [linopirdine],ineffective at inhibiting SK channels
